Broadly, the inhibition is the change of the read-out against control, counted positive when it falls. Low readings indicate little suppression, high ones strong suppression. For orientation: IC50 means the concentration that gives 50% inhibition. A lower IC50 goes with greater potency in that assay.

The record followed here is ChEMBL document CHEMBL3745672, “Novel compounds reducing IRS-1 serine phosphorylation for treatment of diabetes” (Bioorg Med Chem Lett, 2016).

Assay [1] has as its target Proto-oncogene tyrosine-protein kinase receptor Ret (Homo sapiens) (UniProt P07949). As to the kind of experiment: Inhibition of RET (unknown origin) at 1 uM.
For a further assay, the system named is HEK293. As to the kind of experiment: Cytotoxicity against HEK293 after 24 hrs by CellTiter-Glo luminescent cell viability assay. In kind it is cell-based. The following applies: Homo sapiens, HEK293, 24 h. For orientation: ATP-based viability assays read luminescence as a measure of living cells.
In assay [2] the target is Epithelial discoidin domain-containing receptor 1 (Homo sapiens) (UniProt Q08345). As to the kind of experiment: Inhibition of DDR1 (unknown origin) at 10 uM.
For assay [3], the target named is Serine/threonine-protein kinase B-raf (Homo sapiens) (UniProt P15056). Description: Inhibition of B-RAF (unknown origin) at 10 uM.
For assay [4], the target named is Tyrosine-protein kinase CSK (Homo sapiens) (UniProt P41240). Description: Inhibition of CSK (unknown origin) at 10 uM.
Chain of Tyrosine-protein kinase CSK (Homo sapiens) (P41240 2-450 limits assumed): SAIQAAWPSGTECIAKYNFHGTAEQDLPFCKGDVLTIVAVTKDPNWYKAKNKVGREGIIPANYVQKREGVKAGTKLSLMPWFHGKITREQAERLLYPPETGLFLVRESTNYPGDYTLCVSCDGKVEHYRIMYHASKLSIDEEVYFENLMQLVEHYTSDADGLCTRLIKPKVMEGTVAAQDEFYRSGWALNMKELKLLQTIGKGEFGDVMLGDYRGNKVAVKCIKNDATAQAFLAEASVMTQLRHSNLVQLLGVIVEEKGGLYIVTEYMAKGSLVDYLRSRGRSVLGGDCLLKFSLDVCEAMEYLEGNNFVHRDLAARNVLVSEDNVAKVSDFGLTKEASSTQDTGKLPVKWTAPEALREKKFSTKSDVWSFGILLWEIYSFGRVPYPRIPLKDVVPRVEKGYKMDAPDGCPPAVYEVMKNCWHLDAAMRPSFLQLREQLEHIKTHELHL
For assay [5], the target named is Cyclin-dependent kinase 4/cyclin D1 (Homo sapiens) (UniProt P11802+P24385). Description: Inhibition of CDK4/cyclin D1 (unknown origin) at 10 uM. Type of assay: protein-complex assay.
Assay [6] concerns the target Mast/stem cell growth factor receptor Kit (Homo sapiens) (UniProt P10721). As to the kind of experiment: Inhibition of cKIT (unknown origin) at 10 uM.
Assay [7] addresses Receptor tyrosine-protein kinase erbB-2 (Homo sapiens) (UniProt P04626). Description: Inhibition of ERBB2 (unknown origin) at 10 uM.
The target in assay [8] is T1, Inhibitor of nuclear factor kappa-B kinase subunit beta (Homo sapiens) (UniProt O14920).
T1 sequence (whole entry): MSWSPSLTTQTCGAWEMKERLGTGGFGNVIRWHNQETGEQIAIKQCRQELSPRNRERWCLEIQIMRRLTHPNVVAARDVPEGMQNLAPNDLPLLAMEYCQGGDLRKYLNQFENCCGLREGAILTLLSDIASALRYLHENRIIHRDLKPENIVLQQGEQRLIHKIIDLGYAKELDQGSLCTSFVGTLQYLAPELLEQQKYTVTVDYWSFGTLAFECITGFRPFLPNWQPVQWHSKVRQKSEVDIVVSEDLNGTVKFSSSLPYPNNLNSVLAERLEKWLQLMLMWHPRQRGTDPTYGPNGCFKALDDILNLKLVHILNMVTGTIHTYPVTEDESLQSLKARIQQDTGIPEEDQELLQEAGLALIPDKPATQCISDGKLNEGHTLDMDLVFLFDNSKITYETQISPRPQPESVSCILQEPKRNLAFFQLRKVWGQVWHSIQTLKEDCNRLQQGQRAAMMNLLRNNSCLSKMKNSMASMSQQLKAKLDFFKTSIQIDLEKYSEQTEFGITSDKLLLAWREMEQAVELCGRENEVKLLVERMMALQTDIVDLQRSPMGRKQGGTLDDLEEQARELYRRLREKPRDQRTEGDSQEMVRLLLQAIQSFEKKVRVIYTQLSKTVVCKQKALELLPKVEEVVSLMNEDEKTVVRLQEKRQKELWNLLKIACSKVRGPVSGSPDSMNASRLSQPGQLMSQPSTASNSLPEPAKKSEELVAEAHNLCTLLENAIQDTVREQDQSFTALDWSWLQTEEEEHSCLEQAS
As to the kind of experiment: Inhibition of IKKbeta (unknown origin) at 10 uM.

The target in assay [9] is T2, Serine/threonine-protein kinase Chk1 (Homo sapiens) (UniProt O14757).
T2 sequence (whole entry): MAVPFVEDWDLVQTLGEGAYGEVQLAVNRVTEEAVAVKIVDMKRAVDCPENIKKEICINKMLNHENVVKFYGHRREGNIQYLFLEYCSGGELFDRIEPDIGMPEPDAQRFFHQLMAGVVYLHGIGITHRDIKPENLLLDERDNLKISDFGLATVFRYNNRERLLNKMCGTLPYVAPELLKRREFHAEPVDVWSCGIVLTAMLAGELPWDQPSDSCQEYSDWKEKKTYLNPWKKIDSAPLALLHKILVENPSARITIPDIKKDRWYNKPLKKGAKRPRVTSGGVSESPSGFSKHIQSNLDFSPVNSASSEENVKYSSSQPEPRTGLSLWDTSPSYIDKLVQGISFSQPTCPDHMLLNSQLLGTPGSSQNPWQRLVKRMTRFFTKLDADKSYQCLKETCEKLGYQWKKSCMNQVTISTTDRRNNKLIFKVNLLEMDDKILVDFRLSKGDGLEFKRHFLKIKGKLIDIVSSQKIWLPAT
As to the kind of experiment: Inhibition of CHK1 (unknown origin) at 10 uM.

For assay [10], the target named is Tyrosine-protein kinase ABL1 (Homo sapiens) (UniProt P00519). Description: Inhibition of ABL (unknown origin) at 10 uM.
Assay [11] addresses Serine/threonine-protein kinase mTOR (Homo sapiens) (UniProt P42345). Description: Inhibition of mTOR (unknown origin) at 10 uM.
For assay [12], the target named is Mitogen-activated protein kinase 3 (Homo sapiens) (UniProt P27361). Description: Inhibition of ERK1 (unknown origin) at 10 uM.
Chain of Mitogen-activated protein kinase 3 (Homo sapiens) (P27361 whole entry): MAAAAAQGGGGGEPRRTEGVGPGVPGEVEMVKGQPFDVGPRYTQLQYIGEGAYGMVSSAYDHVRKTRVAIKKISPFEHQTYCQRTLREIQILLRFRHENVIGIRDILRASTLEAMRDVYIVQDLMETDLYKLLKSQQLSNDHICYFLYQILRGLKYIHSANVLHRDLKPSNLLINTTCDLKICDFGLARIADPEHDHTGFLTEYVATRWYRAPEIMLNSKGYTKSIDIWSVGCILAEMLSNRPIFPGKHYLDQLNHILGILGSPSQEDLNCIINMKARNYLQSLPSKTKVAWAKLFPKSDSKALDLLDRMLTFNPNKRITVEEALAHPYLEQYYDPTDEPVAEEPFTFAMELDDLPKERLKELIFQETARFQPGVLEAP
The target in assay [13] is Angiopoietin-1 receptor (Homo sapiens) (UniProt Q02763). As to the kind of experiment: Inhibition of TIE2 (unknown origin) at 10 uM.
The target in assay [14] is Fibroblast growth factor receptor 3 (Homo sapiens) (UniProt P22607). Description: Inhibition of FGFR3 (unknown origin) at 10 uM.
Chain of Fibroblast growth factor receptor 3 (Homo sapiens) (P22607 23-806 limits assumed): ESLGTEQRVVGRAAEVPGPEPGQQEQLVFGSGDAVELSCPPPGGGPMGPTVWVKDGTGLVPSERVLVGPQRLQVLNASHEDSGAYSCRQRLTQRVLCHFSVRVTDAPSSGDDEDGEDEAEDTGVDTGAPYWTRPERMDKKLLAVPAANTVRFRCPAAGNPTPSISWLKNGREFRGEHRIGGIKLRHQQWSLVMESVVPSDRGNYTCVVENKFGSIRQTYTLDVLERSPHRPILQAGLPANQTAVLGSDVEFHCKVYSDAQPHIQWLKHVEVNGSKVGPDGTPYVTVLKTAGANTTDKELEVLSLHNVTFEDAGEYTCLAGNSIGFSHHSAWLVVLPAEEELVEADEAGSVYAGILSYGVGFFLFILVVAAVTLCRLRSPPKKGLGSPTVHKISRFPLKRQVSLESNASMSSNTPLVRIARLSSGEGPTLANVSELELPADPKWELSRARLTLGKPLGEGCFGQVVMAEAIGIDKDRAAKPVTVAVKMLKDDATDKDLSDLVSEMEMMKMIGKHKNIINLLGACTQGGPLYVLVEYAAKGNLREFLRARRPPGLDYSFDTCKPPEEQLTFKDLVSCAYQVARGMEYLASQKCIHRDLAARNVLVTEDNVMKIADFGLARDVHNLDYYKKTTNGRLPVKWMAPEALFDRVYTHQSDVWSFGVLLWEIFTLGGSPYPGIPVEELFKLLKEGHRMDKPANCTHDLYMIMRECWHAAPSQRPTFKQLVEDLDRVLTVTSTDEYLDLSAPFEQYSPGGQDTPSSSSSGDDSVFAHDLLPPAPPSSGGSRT
Assay [15] concerns the target Vascular endothelial growth factor receptor 2 (Homo sapiens) (UniProt P35968). As to the kind of experiment: Inhibition of VEGFR2 (unknown origin) at 10 uM.
Assay [16] has as its target T3, Interleukin-1 receptor-associated kinase 4 (Homo sapiens) (UniProt Q9NWZ3).
T3 sequence (whole entry): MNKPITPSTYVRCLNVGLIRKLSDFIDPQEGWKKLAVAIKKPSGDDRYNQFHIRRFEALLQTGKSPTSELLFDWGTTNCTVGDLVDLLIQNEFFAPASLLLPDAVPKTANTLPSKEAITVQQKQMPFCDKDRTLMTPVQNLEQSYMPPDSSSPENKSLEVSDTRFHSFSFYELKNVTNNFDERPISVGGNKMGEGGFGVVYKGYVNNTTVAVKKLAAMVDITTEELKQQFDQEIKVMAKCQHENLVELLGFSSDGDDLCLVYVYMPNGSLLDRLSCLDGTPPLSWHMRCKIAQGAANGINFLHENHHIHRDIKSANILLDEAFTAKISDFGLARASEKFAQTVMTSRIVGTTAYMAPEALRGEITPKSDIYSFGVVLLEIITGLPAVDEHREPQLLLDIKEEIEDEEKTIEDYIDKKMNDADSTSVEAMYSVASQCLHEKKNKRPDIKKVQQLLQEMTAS
Description: Inhibition of IRAK4 (unknown origin) at 10 uM.

The target of assay [17] is Proto-oncogene tyrosine-protein kinase Src (Homo sapiens) (UniProt P12931). Description: Inhibition of SRC (unknown origin) at 10 uM.
Chain of Proto-oncogene tyrosine-protein kinase Src (Homo sapiens) (P12931 2-536 limits assumed): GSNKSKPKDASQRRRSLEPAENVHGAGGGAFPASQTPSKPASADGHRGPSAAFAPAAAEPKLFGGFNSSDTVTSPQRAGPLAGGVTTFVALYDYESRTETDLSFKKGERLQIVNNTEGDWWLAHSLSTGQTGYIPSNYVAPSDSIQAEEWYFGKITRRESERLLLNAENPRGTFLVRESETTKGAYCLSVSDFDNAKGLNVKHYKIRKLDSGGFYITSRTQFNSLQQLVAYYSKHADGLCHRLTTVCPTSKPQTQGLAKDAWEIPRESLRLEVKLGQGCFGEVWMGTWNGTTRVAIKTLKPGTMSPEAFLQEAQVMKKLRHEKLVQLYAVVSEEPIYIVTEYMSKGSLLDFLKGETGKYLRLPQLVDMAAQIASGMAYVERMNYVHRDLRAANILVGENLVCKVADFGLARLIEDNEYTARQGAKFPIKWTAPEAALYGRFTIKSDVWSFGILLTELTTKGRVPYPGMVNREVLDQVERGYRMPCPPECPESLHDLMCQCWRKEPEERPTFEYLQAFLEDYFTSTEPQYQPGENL

Chain of Mast/stem cell growth factor receptor Kit (Homo sapiens) (P10721 whole entry): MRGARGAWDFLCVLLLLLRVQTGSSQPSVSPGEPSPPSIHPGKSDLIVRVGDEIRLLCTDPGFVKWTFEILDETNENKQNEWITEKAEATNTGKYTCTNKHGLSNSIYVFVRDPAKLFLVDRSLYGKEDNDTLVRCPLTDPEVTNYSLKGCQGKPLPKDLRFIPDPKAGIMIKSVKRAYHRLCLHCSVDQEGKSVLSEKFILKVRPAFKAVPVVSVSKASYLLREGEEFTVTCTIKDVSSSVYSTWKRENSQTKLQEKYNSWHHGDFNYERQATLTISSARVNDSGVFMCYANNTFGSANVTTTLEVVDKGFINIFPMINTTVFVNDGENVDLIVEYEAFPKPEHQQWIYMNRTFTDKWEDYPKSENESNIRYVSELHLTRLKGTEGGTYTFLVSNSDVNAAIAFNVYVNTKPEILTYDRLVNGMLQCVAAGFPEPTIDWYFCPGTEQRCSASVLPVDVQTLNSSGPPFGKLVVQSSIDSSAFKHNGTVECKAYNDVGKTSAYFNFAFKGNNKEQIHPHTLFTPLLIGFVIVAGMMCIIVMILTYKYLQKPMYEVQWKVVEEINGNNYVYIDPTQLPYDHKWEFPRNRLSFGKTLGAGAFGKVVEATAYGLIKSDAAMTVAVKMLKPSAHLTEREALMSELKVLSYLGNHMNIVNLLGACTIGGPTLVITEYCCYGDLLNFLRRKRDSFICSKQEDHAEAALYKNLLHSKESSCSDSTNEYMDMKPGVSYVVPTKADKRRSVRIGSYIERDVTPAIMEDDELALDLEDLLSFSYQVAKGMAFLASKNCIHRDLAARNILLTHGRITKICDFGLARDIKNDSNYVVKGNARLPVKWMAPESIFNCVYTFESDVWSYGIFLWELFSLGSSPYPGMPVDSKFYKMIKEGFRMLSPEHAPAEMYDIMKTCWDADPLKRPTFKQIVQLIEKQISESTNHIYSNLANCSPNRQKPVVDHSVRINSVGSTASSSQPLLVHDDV
Chain of Vascular endothelial growth factor receptor 2 (Homo sapiens) (P35968 whole entry): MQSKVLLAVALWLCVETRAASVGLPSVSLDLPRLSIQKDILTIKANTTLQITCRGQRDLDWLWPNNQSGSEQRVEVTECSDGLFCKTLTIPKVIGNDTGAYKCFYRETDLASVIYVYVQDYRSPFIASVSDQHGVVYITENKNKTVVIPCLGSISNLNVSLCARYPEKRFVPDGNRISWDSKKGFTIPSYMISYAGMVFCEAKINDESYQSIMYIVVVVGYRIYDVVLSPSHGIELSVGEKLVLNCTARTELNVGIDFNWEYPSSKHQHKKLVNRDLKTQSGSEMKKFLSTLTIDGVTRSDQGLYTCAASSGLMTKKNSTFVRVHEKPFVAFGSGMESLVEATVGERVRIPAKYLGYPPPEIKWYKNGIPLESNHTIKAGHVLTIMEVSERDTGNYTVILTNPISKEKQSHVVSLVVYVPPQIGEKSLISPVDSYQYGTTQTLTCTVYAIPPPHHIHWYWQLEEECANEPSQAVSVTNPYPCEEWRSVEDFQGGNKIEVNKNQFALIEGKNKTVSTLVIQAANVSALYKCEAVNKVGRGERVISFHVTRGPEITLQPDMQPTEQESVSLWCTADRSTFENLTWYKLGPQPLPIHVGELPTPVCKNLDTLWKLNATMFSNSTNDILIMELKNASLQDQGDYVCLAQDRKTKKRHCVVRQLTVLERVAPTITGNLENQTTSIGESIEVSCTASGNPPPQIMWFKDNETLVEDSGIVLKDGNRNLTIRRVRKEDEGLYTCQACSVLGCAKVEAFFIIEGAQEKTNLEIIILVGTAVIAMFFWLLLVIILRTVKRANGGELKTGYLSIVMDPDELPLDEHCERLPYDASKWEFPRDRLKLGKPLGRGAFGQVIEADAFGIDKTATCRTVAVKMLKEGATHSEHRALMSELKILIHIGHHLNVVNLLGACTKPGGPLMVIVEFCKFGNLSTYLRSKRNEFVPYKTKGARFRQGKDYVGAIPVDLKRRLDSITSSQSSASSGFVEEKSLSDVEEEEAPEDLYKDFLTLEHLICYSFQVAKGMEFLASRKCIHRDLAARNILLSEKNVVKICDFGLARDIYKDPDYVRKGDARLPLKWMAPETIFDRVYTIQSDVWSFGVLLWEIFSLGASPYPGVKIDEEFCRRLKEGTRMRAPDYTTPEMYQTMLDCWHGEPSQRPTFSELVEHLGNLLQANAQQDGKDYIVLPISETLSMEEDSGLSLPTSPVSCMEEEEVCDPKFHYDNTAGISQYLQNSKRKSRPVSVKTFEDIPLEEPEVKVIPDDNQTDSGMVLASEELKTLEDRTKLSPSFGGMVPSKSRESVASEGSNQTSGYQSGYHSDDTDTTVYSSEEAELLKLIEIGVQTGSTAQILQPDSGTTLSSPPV

Take `Cn1c(=O)c(Oc2ccc(F)cc2F)cc2cnc(NC3CCN(S(N)(=O)=O)CC3)nc21`: in assay [1], the inhibition was 30%. The same compound gave an IC50 in the assay on HEK293 of more than 30 µM.

`CN1CCN(CCCNc2ncc3cc(Oc4ccc(F)cc4F)c(=O)n(C)c3n2)CC1`: the inhibition in assay [2] worked out at 91%; in assay [3] it was 13%; in [4], 4%; in [5], 6%; in assay [6], 8%; in assay [7] it was 23%. In addition, the inhibition in [8] is 6%; in assay [9], 8%; in assay [10], 24%; in assay [11], 9%; in assay [12], 0%; in [13], 0%. The inhibition worked out at 0% in assay [14], 30% in assay [15], 16% in assay [16] and 18% in assay [17]. Also, in the assay with HEK293, the 50% inhibitory concentration (IC50) is more than 30 µM.
